Source: US10844067B2, “Heterocyclic compounds as RET kinase inhibitors” (Cancer Research Technology Limited, priority 2016, dated 2020)
Read-outs that look alike come from different tables or passages of the source.

Legend:
RET = RET (Homo sapiens (Human), UniProt P07949); experiment: RET enzyme assay (CisBio HTRF kinEASE); assay type: biochemical; settings: for IC50: ATP at Km
KDR = KDR (Homo sapiens (Human), UniProt P35968); experiment: KDR enzyme assay (CisBio HTRF kinEASE); assay type: biochemical; settings: ATP at Km
KDR, sequence (P35968 20-1356): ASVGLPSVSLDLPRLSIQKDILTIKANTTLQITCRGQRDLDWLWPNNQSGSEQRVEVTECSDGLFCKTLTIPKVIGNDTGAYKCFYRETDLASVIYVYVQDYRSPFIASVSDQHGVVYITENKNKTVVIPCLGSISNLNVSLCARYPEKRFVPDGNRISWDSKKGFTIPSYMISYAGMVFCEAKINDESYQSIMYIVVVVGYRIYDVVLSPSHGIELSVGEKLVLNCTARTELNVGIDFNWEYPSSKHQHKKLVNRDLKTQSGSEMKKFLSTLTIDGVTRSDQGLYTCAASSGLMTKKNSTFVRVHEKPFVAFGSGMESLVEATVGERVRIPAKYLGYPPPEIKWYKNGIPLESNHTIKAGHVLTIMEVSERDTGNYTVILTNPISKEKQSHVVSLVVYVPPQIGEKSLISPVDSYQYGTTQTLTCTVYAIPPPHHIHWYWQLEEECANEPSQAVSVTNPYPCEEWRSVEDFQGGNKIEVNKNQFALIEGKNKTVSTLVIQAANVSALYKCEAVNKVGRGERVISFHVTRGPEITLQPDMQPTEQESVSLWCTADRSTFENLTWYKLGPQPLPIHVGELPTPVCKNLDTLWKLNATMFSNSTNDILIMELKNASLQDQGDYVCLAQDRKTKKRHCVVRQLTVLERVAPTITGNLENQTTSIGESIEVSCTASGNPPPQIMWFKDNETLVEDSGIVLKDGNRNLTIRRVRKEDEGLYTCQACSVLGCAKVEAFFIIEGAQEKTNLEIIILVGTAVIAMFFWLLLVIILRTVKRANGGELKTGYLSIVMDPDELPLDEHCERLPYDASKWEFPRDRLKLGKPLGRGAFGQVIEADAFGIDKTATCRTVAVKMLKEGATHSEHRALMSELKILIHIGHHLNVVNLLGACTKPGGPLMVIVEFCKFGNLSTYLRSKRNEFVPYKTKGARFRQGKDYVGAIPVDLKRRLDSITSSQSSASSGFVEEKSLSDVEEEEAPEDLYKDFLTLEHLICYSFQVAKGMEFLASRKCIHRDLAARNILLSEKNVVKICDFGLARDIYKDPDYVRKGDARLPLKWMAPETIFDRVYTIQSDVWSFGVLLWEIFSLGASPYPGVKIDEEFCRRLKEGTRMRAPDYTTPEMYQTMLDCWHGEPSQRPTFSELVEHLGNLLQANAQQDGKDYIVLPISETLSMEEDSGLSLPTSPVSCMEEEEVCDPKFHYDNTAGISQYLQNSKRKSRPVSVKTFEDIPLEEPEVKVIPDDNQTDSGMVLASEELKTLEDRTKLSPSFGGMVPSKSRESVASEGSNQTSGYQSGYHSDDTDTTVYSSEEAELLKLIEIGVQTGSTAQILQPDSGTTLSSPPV

RET^V804M = RET^V804M (Homo sapiens (Human), UniProt P07949, V804M); experiment: RET^V804M enzyme assay; assay type: biochemical
RET^V804M, sequence (P07949 29-1114 V804M): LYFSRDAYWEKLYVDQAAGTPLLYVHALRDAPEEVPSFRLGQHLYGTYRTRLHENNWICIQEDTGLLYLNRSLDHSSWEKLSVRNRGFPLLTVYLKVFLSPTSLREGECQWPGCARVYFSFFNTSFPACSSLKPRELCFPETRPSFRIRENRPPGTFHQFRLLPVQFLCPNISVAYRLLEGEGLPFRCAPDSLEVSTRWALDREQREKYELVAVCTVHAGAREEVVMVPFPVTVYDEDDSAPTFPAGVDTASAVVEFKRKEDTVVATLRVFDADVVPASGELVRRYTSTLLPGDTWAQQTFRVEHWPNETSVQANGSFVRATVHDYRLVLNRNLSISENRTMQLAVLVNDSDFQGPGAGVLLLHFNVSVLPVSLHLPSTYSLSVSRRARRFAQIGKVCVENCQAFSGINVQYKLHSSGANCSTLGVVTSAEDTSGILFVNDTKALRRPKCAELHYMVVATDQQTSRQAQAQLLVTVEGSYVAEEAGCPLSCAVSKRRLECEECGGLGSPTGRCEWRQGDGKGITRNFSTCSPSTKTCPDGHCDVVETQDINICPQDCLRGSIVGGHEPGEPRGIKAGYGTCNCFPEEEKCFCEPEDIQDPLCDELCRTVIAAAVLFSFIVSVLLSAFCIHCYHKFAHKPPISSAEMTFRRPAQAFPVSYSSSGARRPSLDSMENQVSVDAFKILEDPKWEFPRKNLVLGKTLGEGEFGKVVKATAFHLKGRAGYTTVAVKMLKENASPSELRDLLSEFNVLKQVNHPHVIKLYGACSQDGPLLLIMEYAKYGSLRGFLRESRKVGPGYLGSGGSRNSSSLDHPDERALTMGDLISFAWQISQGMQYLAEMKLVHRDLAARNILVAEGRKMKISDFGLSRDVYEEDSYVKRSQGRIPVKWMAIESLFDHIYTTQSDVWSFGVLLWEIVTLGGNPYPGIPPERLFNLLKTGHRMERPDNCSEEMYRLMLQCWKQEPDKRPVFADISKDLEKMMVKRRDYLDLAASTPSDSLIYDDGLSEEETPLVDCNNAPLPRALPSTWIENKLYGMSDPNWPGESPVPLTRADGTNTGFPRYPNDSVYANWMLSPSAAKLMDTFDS

[1] = biological target: BaF3 cell lines expressing KIF5B-RET (Homo sapiens, UniProt P07949); assay type: cell-based; settings: read-out: RET Cell IC50
BaF3 cell lines expressing KIF5B-RET, sequence (P07949 29-1114 limits assumed, change not shown): as the sequence (P07949 29-1114 V804M) above, with M776V counted along it
Description: (§1) The system originally developed by Daley and Baltimore^16 was used, whereby IL3-dependent BaF3 cells are modified to express an activated recombinant kinase. Following removal of IL3, the modified cells are dependent on the activity of the recombinant kinase for survival and proliferation. […] Following incubation of the cells for 48 hours at 37° C. in a humidified 5% CO2 atmosphere, viability was determined by addition of 10 μL CellTiter-Glo reagent (Promega) and measurement of luminescence.

[2] = tested on: BaF3 cell lines expressing KDR; experiment: BaF3 cell assay, KDR (CellTiter-Glo viability); assay type: cell-based; settings: Mus musculus, BaF3 cells expressing KDR, 48 hours
Description: as §1

RET^V804M Cell = experiment: BaF3 cell assay, RET^V804M (CellTiter-Glo viability); assay type: cell-based; settings: Mus musculus, RET^V804M cells, 48 hours
Description: as §1

[3] = tested on: Non-modified BaF3 cells (WT); experiment: BaF3 cell assay, non-modified (WT) cells with IL3; settings: Mus musculus, BaF3, 48 h, read-out: BaF3 IC50
Description: as §1

RET, sequence (P07949 29-1114): as the sequence (P07949 29-1114 V804M) above, with M776V counted along it

CC(C)(C)n1nc(-c2cc3ncccc3[nH]2)c2c(N)ncnc21 [1-tert-butyl-3-(1H-pyrrolo[3,2-b]pyridin-2-yl)pyrazolo[3,4-d]pyrimidin-4-amine]
desired activity in the assays described in the Examples section (RET): did not exhibit the desired activity

Nc1ncnc2c1c(-c1[nH]c3ncccc3c1Cl)nn2CC(=O)O [2-(4-amino-3-(3-chloro-1H-pyrrolo[2,3-b]pyridin-2-yl)-1H-pyrazolo[3,4-d]pyrimidin-1-yl)acetic acid]
desired activity in the assays described in the Examples section (RET): did not exhibit the desired activity

CC(C)CCn1nc(-c2[nH]c3ccccc3c2Cl)c2c(N)ncnc21 [3-(3-Chloro-1H-indol-2-yl)-1-isopentyl-1H-pyrazolo[3,4-d]pyrimidin-4-amine]
desired activity in the assays described in the Examples section (RET): did not exhibit the desired activity

Nc1ncnc2c1c(-c1[nH]c3ccccc3c1Cl)nn2CC1CCNC1 (centres unmarked) [3-(3-chloro-1H-indol-2-yl)-1-(pyrrolidin-3-ylmethyl)-1H-pyrazolo[3,4-d]pyrimidin-4-amine]
desired activity in the assays described in the Examples section (RET): did not exhibit the desired activity

CS(=O)(=O)N1CCC(n2nc(-c3[nH]c4ccccc4c3Cl)c3c(N)ncnc32)CC1 [Example 4, 3-(3-Chloro-1H-indol-2-yl)-1-(1-methylsulfonyl-4-piperidyl)pyrazolo[3,4-d]pyrimidin-4-amine]
IC50 (KDR): > 30 µM

CC(C)(C)OC(=O)N[C@H]1CC[C@@H](n2nc(-c3cc4cccnc4[nH]3)c3c(N)ncnc32)CC1 [Example 27, tert-Butyl N-[cis-4-(4-amino-3-{1H-pyrrolo[2,3-b]pyridin-2-yl}-1H-pyrazolo[3,4-d]pyrimidin-1-yl)cyclohexyl]carbamate]
IC50 (KDR): > 30 µM

CC(C)(C)OC(=O)N[C@H]1CC[C@H](n2nc(-c3cc4cccnc4[nH]3)c3c(N)ncnc32)CC1 [Example 28, tert-Butyl (trans-4-(4-amino-3-(1H-pyrrolo[2,3-b]pyridin-2-yl)-1H-pyrazolo[3,4-d]pyrimidin-1-yl)cyclohexyl)carbamate]
IC50 (KDR): > 30 µM

Nc1ncnc2c1c(-c1cc3cccnc3[nH]1)nn2[C@H]1CC[C@H](NC(=O)C2CC2)CC1 [Example 36, N-(trans-4-(4-Amino-3-(1H-pyrrolo[2,3-b]pyridin-2-yl)-1H-pyrazolo[3,4-d]pyrimidin-1-yl)cyclohexyl)cyclopropanecarboxamide]
IC50 (KDR): > 30 µM

CC(C)n1nc(-c2cc3ccccc3[nH]2)c2c(N)ncnc21 [Example 44, 3-(1H-Indol-2-yl)-1-isopropyl-pyrazolo[3,4-d]pyrimidin-4-amine]
IC50 (RET): 0.0187 µM
IC50 (KDR): 4.57 µM
IC50 (RET^V804M): 1.87 µM
IC50 ([1]; BaF3 cells expressing KIF5B-RET, 48 hours, CellTiter-Glo): 0.0836 µM
IC50 [2]: 2.77 µM
IC50 (RET^V804M Cell): 1.47 µM
IC50 [3]: 3.63 µM

Cn1nc(-c2[nH]c3ncccc3c2Cl)c2c(N)ncnc21 [Example 65, 3-(3-Chloro-1H-pyrrolo[2,3-b]pyridin-2-yl)-1-methyl-pyrazolo[3,4-d]pyrimidin-4-amine]
desired activity in the assays described in the Examples section (RET): did not exhibit the desired activity
IC50 (RET): > 30 µM
IC50 (RET^V804M): > 30 µM
IC50 [1]: 1.01 µM

Nc1ncnc2c1c(-c1[nH]c3ncccc3c1Cl)nn2C1CCCCC1 [Example 67, 3-(3-Chloro-1H-pyrrolo[2,3-b]pyridin-2-yl)-1-cyclohexyl-pyrazolo[3,4-d]pyrimidin-4-amine]
IC50 (RET): > 30 µM
IC50 (RET^V804M): > 30 µM
IC50 [1]: 0.0687 µM

CN(C)C1CCN(CCn2nc(-c3[nH]c4ncccc4c3Cl)c3c(N)ncnc32)CC1 [Example 77, 3-(3-Chloro-1H-pyrrolo[2,3-b]pyridin-2-yl)-1-(2-(4-(dimethylamino)piperidin-1-yl)ethyl)-1H-pyrazolo[3,4-d]pyrimidin-4-amine]
IC50 (KDR): > 30 µM
